One series deals with HEK293. The series can be described thus: Cytotoxicity against HEK293 cells assessed as reduction in cell viability at 2 to 5 uM after 24 hrs by MTT assay. The format is cell-based. The note with it: human, hek293, 24 h. Background: Tetrazolium dyes change colour on reduction, which living cells bring about.
The species named for another series is Bos taurus. In words: Binding affinity to calf thymus DNA assessed as intrinsic binding constant by UV spectrophotometry.
Series [1] relates to HeLa. The series can be described thus: Induction of reactive oxygen species generation in human HeLa cells at 5 to 10 uM after 24 hrs by DCFDA dye-based fluorescence assay. In kind it is functional, cell-based.
The subject of series [2] is HeLa. In words: Cytotoxicity against human HeLa cells assessed as cell viability at 2 uM after 24 hrs by MTT assay relative to control. The note with it: read-out: Activity. In kind it is functional.
Series [3] deals with HeLa. The series can be described thus: Cytotoxicity against human HeLa cells assessed as reduction in cell viability after 24 hrs by MTT assay. The format is functional, cell-based.
Series [4] relates to HeLa. The series can be described thus: Induction of morphological changes in human HeLa cells assessed as rounding-off of cells after 24 hrs by Hoechst 33258 staining based fluorescence microscopic analysis. In kind it is functional, cell-based.
Series [5] has as its system HeLa. In words: Induction of morphological changes in human HeLa cells assessed as nuclear fragmentation after 24 hrs by Hoechst 33258 staining based fluorescence microscopic analysis. The format is functional, cell-based.
Series [6] concerns HeLa. The series can be described thus: Induction of morphological changes in human HeLa cells assessed as loss of cell shape after 24 hrs by Hoechst 33258 staining based fluorescence microscopic analysis. The format is functional.
The subject of series [7] is HeLa. In words: Cytotoxicity against human HeLa cells assessed as reduction in cell viability at 2 to 50 uM after 24 hrs by MTT assay relative to control. The format is functional.

Calls of active or inactive are those of the source. The rule behind the calls is not given here.

Broadly, the IC50 is the point on the concentration scale where inhibition reaches its midpoint.

Take `COC(=O)c1ccc2c(c1)Oc1c(C#N)c(F)c(F)c(C#N)c1O2`: the Activity entry with HEK293 was “Non-Toxic”; in the series with HeLa [3] it was “Dose-dependent effect”; with HeLa [4] it was “Dose-dependent effect”; with HeLa [5], “Dose-dependent effect”; in the series on HeLa [6], “Dose-dependent effect”. The logKb in the series filed under Bos taurus worked out at 5.39. In addition, the outcome in the series on HeLa [1] was Active. Further, the viability at 2 µM in the series on HeLa [2] was 50%. For the same molecule, the IC50 in the series with HeLa [3] is 2.99 µM.
For the molecule `N#Cc1cc2c(cc1C#N)Oc1cc(Br)ccc1O2`, the Activity with HeLa [7] is 70 - 80%; in the series with HEK293 it was “Non-Toxic”; in the series on HeLa [3], “Dose-dependent effect”. Further, the half-inhibitory concentration (IC50) in the series on HeLa [3] came out at 8.82 µM.
For the molecule `COC(=O)c1cccc2c1Oc1c(C#N)c(F)c(F)c(C#N)c1O2`, the Activity result is “Non-Toxic” in the series with HEK293; “Dose-dependent effect” in the series with HeLa [3]; “Dose-dependent effect” in the series on HeLa [4]; “Dose-dependent effect” in the series with HeLa [5]; “Dose-dependent effect” in the series on HeLa [6]. For the same molecule, the logKb in the series filed under Bos taurus worked out at 6. In the series with HeLa [1], the result was Active. Besides, the viability at 2 µM in the series on HeLa [2] came to 35%. The 50% inhibitory concentration (IC50) in the series on HeLa [3] was determined as 1.57 µM.
As for `N#Cc1cc2c(cc1C#N)Oc1ccccc1O2`, the Activity in the series with HeLa [7] was 70 - 80%; with HEK293, “Non-Toxic”; in the series with HeLa [3] it was “Dose-dependent effect”.
Turning to `O=c1[nH]cc(F)c(=O)[nH]1` [FLUOROURACIL], in the series with HeLa [3], the concentration for half-maximal inhibition (IC50) stood at 2.9 µM.
As to `N#Cc1c(F)c(F)c(C#N)c2c1Oc1ccccc1O2`, the results for the Activity in the series on HeLa [7], in the series with HEK293 and in the series with HeLa [3] were 70 - 80%, “Non-Toxic” and “Dose-dependent effect”, respectively. Moreover, the IC50 with HeLa [3] turned out to be 9.62 µM.
`COc1c(F)c(C#N)c2c(c1C#N)Oc1ccccc1O2`: the Activity entry in the series with HEK293 is “Non-Toxic”; with HeLa [3] it was “Dose-dependent effect”; in the series with HeLa [4], “Dose-dependent effect”; in the series with HeLa [5] it was “Dose-dependent effect”; with HeLa [6] it was “Dose-dependent effect”. In the series listed under Bos taurus, the logKb was found to be 5.38. Moreover, the outcome in the series with HeLa [1] was Active. Further, in the series with HeLa [2], the viability at 2 µM worked out at 30%. For the same molecule, the half-inhibitory concentration (IC50) in the series on HeLa [3] was 1.45 µM.
Take `N#Cc1cc2c(cc1C#N)Oc1cc([N+](=O)[O-])ccc1O2`: the Activity with HeLa [7] is recorded as 70 - 80%.
Regarding `CCN(CC)c1c(F)c(C#N)c2c(c1C#N)Oc1ccccc1O2`, the Activity result was “Non-Toxic” in the series on HEK293; “Dose-dependent effect” in the series on HeLa [3]; “Dose-dependent effect” with HeLa [4]; “Dose-dependent effect” in the series with HeLa [5]; “Dose-dependent effect” in the series on HeLa [6]. Further, the logKb in the series listed under Bos taurus is 5.5. In the series with HeLa [1], the outcome was Active. Also, the viability at 2 µM in the series with HeLa [2] was determined as 30%. In addition, in the series with HeLa [3], the half-inhibitory concentration (IC50) amounted to 1.47 µM.
In the case of `CC/C(=C(\c1ccccc1)c1ccc(OCCN(C)C)cc1)c1ccccc1` [TAMOXIFEN], the IC50 in the series on HeLa [3] came to 8.85 µM.
For the molecule `N#Cc1c(F)c(F)c2c(c1C#N)Oc1ccccc1O2`, the Activity result in the series with HEK293 is on record as “Non-Toxic”. Further, in the series on HeLa [3], the Activity entry was “Dose-dependent effect” and the IC50 was 42.2 µM.

The values above are taken from ChEMBL document CHEMBL4043198, “Synthesis and electronic properties of ester substituted 1,4-dicyanodibenzodioxins and evaluation of anti-proliferative activity of all isomeric 1,2-, 2,3- and 1,4-dicyanodibenzodioxins against HeLa cell line” (Bioorg Med Chem Lett, 2017).
